Drawing on patent US8501446B2 (Vertex Pharmaceuticals Incorporated, priority 2004, dated 2013), this text covers Ki for 35 compounds.

What all share (assay type): biochemical
One test has as its target T1, JAK3 (Homo sapiens, UniProt P52333).
T1 sequence (P52333 1-1124): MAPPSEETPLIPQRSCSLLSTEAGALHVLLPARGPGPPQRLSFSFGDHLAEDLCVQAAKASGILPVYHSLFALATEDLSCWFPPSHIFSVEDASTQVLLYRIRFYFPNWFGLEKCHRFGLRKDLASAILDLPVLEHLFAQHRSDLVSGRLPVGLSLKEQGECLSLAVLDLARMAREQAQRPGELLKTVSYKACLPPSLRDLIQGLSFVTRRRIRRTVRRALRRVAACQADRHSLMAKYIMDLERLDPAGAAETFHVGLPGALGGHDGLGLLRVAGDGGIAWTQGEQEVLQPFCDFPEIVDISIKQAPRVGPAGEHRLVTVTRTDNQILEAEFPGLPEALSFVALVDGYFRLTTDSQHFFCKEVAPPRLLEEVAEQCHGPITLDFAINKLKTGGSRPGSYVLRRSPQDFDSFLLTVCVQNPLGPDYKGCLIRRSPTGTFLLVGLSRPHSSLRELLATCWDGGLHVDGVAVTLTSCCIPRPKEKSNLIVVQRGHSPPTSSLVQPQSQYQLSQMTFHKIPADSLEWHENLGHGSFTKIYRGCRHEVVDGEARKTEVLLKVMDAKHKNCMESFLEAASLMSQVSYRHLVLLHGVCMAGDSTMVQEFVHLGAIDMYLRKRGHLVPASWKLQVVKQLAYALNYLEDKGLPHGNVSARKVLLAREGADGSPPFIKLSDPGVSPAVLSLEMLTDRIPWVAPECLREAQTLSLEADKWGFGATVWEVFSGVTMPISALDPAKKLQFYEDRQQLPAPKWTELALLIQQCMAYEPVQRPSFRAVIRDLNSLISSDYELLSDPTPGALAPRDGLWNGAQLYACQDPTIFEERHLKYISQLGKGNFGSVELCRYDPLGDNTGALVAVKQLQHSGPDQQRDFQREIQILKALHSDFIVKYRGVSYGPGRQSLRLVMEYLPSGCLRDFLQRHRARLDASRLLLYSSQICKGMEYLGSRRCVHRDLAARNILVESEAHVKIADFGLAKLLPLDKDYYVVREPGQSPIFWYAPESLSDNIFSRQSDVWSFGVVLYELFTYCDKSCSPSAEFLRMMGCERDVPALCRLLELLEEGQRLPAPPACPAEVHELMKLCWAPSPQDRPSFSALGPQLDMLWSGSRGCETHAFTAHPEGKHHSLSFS
Nature of the test: JAK3 inhibition assay (standard radioactive enzyme assay). The conditions noted are these: average Ki if more than one value determined. How it is done: (§1) Compounds were screened for their ability to inhibit JAK3 using a standard radioactive enzyme assay. 1.5 μL/well of a DMSO stock containing serial dilutions of a compound of the present invention (concentrations ranging from 667 μM to 46 nM) was placed in a 96 well polycarbonate plate. 50 μL per well of kinase buffer (100 mM HEPES (pH 7.4), 10 mM MgCl2, 25 mM NaCl, 1 mM DTT, and 0.01% bovine serum albumin (BSA)) containing 2 μM poly(Glu)4Tyr and 10 μM ATP was also added to the plate. To initiate the reaction, 50 μL kinase buffer containing 2 nM JAK3 enzyme was added. Final ATP concentration was 5 μM [γ-^33P] ATP (200 μCi ^33P ATP/μmol ATP (Perkin Elmer, Cambridge, Mass.). After 20 minutes at room temperature (25° C.), the reaction was stopped by adding 50 μL 20% trichloroacetic acid (TCA)/0.4 mM ATP to each well. The entire content of each well was then transferred to a 96 well glass fiber filter plate using a TomTek Cell Harvester. After washing, 60 μL scintillation fluid was added and ^33P incorporation detected using a Perkin Elmer TopCount. After removing mean background values for all of the data points the data was fit using Prism software to obtain a Ki(app). Inhibition of JAK2 was measured as above except that final poly(Glu)4Tyr concentration was 15 μM and final ATP concentration was 12 μM.

Another test has as its target JAK2 (Homo sapiens, UniProt O60674). Nature of the test: JAK2 inhibition assay (radioactive enzyme assay, as for JAK3). The conditions noted are these: average Ki if more than one value determined. How it is done:
as §1

For the next test, the target named is T2, ROCK I (AA 6-553) (Homo sapiens, UniProt Q13464).
T2 construct: ROCK I (AA 6-553)
T2 sequence (Q13464 6-553, species assumed): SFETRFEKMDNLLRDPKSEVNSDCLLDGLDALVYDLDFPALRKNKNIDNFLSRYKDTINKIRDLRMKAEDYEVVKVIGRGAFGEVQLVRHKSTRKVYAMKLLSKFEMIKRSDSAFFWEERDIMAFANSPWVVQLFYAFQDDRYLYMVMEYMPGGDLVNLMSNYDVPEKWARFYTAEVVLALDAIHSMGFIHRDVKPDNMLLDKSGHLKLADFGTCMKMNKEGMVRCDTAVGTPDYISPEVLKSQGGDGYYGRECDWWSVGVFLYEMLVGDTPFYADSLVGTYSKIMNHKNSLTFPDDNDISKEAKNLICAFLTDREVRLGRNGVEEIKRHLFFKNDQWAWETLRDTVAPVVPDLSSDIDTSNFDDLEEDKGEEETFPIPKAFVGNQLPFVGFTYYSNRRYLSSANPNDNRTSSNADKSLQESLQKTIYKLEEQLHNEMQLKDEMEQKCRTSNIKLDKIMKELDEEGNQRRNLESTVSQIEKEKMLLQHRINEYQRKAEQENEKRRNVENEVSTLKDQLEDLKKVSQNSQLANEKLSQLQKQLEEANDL
Put plainly: ROCK inhibition assay, standard coupled enzyme system ("Enzyme"). The settings on record: enzyme-linked assay. The method in brief:
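ROCK I (AA 6-553) at 45 nM and 30 °C with 45 μM ATP and 200 μM peptide, in 100 mM HEPES pH 7.5, 10 mM MgCl2, 25 mM NaCl, 2 mM DTT, 1.5% DMSO. ADP output read by a PK/LDH coupled system: 2.5 mM PEP, 350 μM NADH, 30 μg/ml PK, 10 μg/ml LDH.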

Chain of JAK2 (O60674 whole entry, species assumed): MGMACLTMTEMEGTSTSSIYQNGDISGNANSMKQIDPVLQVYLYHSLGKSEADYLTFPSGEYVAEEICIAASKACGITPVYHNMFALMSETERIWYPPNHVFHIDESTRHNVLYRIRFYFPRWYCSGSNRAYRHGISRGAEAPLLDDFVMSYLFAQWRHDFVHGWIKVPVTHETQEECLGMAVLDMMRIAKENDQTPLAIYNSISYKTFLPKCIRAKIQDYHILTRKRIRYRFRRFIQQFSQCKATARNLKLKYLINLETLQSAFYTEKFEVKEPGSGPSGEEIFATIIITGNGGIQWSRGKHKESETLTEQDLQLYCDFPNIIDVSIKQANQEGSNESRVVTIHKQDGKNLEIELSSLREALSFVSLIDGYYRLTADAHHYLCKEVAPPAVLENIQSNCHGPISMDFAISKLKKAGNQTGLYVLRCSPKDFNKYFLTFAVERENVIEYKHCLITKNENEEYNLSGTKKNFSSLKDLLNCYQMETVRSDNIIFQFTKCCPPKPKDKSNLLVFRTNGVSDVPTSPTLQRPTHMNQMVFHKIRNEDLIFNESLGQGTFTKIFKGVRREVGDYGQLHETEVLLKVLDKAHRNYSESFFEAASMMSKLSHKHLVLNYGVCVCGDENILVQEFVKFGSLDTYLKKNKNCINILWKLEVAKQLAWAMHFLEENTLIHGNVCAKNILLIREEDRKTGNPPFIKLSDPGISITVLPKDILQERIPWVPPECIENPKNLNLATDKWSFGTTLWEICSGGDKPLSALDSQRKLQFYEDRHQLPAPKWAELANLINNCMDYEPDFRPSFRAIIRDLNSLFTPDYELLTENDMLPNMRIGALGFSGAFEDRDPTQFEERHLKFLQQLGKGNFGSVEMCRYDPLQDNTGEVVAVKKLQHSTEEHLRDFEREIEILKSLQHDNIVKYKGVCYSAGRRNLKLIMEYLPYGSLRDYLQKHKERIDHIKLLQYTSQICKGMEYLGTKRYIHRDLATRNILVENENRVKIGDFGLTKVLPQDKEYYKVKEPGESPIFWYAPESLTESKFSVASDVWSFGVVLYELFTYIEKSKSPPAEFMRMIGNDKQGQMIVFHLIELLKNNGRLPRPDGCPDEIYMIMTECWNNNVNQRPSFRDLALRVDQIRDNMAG

As to `COC(=O)N1CCCN(c2cccc(-c3c[nH]c4ncc(Cl)cc34)n2)CC1` [Compound 83], the figures for the Ki at JAK3, on JAK2 and on ROCK I (AA 6-553) were less than 500 nM, less than 500 nM and 500 to 5000 nM, respectively.

In the case of `CC(=O)N1[C@H](C)CN(c2cccc(-c3c[nH]c4ncc(NC(=O)OC(C)C)cc34)n2)C[C@@H]1C` [Compound 65], the Ki at JAK3 was less than 500 nM; on JAK2, less than 500 nM; at ROCK I (AA 6-553), 500 to 5000 nM.

In the case of `Cc1cc(-c2c[nH]c3ncc(Cl)cc23)c2ccccc2n1` [Compound 198], the Ki on JAK3 was 500 to 5000 nM; at JAK2, greater than 5000 nM; at ROCK I (AA 6-553), 500 to 5000 nM.

Consider `O[C@H]1Cc2ccccc2[C@H]1Nc1cccc(-c2c[nH]c3ncc(Cl)cc23)n1` [Compound 136], for which the Ki on JAK3, on JAK2 and at ROCK I (AA 6-553) was less than 500 nM throughout.

With `CC(=O)N1[C@H](C)CN(c2cccc(-c3c[nH]c4ncc(NC(=O)Oc5ccc(C)cc5)cc34)n2)C[C@@H]1C` [Compound 61], the inhibitory constant (Ki) on JAK3 is less than 500 nM; on JAK2, less than 500 nM; at ROCK I (AA 6-553), 500 to 5000 nM.

With `CC(C)CC(=O)N1CCN(c2cccc(-c3c[nH]c4ncc(Cl)cc34)n2)CC1` [Compound 89], the values for the Ki at JAK3, at JAK2 and at ROCK I (AA 6-553) were less than 500 nM, less than 500 nM and 500 to 5000 nM, respectively.

As to `CCCC(=O)N1CCN(c2cccc(-c3c[nH]c4ncc(Cl)cc34)n2)CC1` [Compound 86], the results for the Ki at JAK3, at JAK2 and on ROCK I (AA 6-553) were less than 500 nM, less than 500 nM and 500 to 5000 nM, respectively.

In the case of `O=C(O)c1ccc(-c2c[nH]c3ncc(Cl)cc23)cc1` [Compound 104], the Ki on JAK3 is less than 500 nM; at JAK2, less than 500 nM; on ROCK I (AA 6-553) it was 500 to 5000 nM.

Take `CC(=O)N1[C@H](C)CN(c2cccc(-c3c[nH]c4ncc(NC(=O)[C@H]5CCCCN5)cc34)n2)C[C@@H]1C` [Compound 171]: the Ki on JAK3 was less than 500 nM; on JAK2, less than 500 nM; at ROCK I (AA 6-553), 500 to 5000 nM.

Take `N#Cc1ccc(-c2c[nH]c3ncc(Cl)cc23)cc1` [Compound 176]: the Ki at JAK3 and at JAK2 was less than 500 nM throughout.

On to `Cc1cc(-c2c[nH]c3ncc(Cl)cc23)nc2ccccc12` [Compound 197], for which the results for the Ki at JAK3, on JAK2 and at ROCK I (AA 6-553) were less than 500 nM, 500 to 5000 nM and 500 to 5000 nM, respectively.

For `O=C(O)c1cc(NCc2ccccc2)cc(-c2c[nH]c3ncc(Cl)cc23)c1` [Compound 147], the inhibition constant (Ki) on JAK3 was less than 500 nM; on JAK2, less than 500 nM; on ROCK I (AA 6-553), 500 to 5000 nM.

Turning to `CC(=O)N1CCCN(c2cccc(-c3c[nH]c4ncc(C)cc34)n2)CC1` [Compound 40], the Ki on JAK3 was less than 500 nM; at JAK2, less than 500 nM; on ROCK I (AA 6-553), 500 to 5000 nM.

In the case of `CC(=O)N1[C@H](C)CN(c2cccc(-c3c[nH]c4ncc(NC(=O)c5ccccc5Cl)cc34)n2)C[C@@H]1C` [Compound 173], the Ki at JAK3, on JAK2 and at ROCK I (AA 6-553) was less than 500 nM throughout.

Regarding `Clc1cnc2[nH]cc(-c3cccc(NC4CCc5ccccc54)n3)c2c1` (centres unmarked) [Compound 133], the inhibition constant (Ki) was less than 500 nM at JAK3, less than 500 nM at JAK2 and 500 to 5000 nM at ROCK I (AA 6-553).

As to `CCCOC(=O)Nc1cnc2[nH]cc(-c3cccc(N4C[C@@H](C)N(C(C)=O)[C@@H](C)C4)n3)c2c1` [Compound 62], the Ki at JAK3, on JAK2 and on ROCK I (AA 6-553) was less than 500 nM throughout.

Turning to `O=C(O)c1ccc(-c2c[nH]c3ncc(Cl)cc23)cc1Cl` [Compound 175], the Ki at JAK3 and at JAK2 was less than 500 nM throughout.

`CC(C)COC(=O)Nc1cccc(-c2c[nH]c3ncc(Cl)cc23)n1` [Compound 90]: the Ki on JAK3 is less than 500 nM; at JAK2, less than 500 nM; on ROCK I (AA 6-553), 500 to 5000 nM.

As to `CCC(=O)N1CCN(c2cccc(-c3c[nH]c4ncc(Cl)cc34)n2)CC1` [Compound 85], the inhibition constant (Ki) is less than 500 nM on JAK3, less than 500 nM at JAK2 and 500 to 5000 nM at ROCK I (AA 6-553).

`C=CC(=O)Nc1cnc2[nH]cc(-c3cccc(N4CCCN(C(=O)CC#N)CC4)n3)c2c1` [Compound 138]: the Ki on JAK3 is less than 500 nM; at JAK2 it was less than 500 nM; on ROCK I (AA 6-553) it was 500 to 5000 nM.

As to `Clc1cnc2[nH]cc(-c3ccccc3)c2c1` [Compound 183], the Ki at JAK3 is less than 500 nM; on JAK2 it was less than 500 nM; on ROCK I (AA 6-553), 500 to 5000 nM.

`Clc1cnc2[nH]cc(-c3cccc(NCc4ccccc4)c3)c2c1` [Compound 145]: the values for the Ki on JAK3, on JAK2 and at ROCK I (AA 6-553) were less than 500 nM, less than 500 nM and 500 to 5000 nM, respectively.

Consider `CN1C2CCC1CN(c1cccc(-c3c[nH]c4ncc(Cl)cc34)n1)CC2` (centres unmarked) [Compound 82], for which the Ki at JAK3, on JAK2 and at ROCK I (AA 6-553) was less than 500 nM in each case.

`CC(=O)N1[C@H](C)CN(c2cccc(-c3c[nH]c4ncc(NC(=O)c5cccc(Cl)c5)cc34)n2)C[C@@H]1C` [Compound 174]: the Ki on JAK3 and at JAK2 was less than 500 nM in each case.

In the case of `CCOc1cnc2[nH]cc(-c3cccc(N4C[C@@H](C)N(C(C)=O)[C@@H](C)C4)n3)c2c1` [Compound 205], the Ki was less than 500 nM at JAK3 and 500 to 5000 nM at ROCK I (AA 6-553).

For the compound `NC(=O)c1ccc(-c2c[nH]c3ncc(Cl)cc23)cc1` [Compound 105], the Ki was less than 500 nM on JAK3, less than 500 nM on JAK2 and 500 to 5000 nM at ROCK I (AA 6-553).

For the compound `CC(=O)N1[C@H](C)CN(c2cccc(-c3c[nH]c4ncc(OC(C)C)cc34)n2)C[C@@H]1C` [Compound 206], the Ki is less than 500 nM on JAK3 and 500 to 5000 nM on ROCK I (AA 6-553).

`CC(=O)N1[C@H](C)CN(c2cccc(-c3c[nH]c4ncc(OCCOC(C)C)cc34)n2)C[C@@H]1C` [Compound 209]: the Ki at JAK3 was less than 500 nM; on ROCK I (AA 6-553) it was 500 to 5000 nM.

Consider `O=C(O)c1ccc(-c2c[nH]c3ncc(Cl)cc23)c(F)c1` [Compound 188], for which the Ki at JAK3 is 500 to 5000 nM; at JAK2, greater than 5000 nM.

As to `COc1cnc2[nH]cc(-c3ncc(F)c(N[C@@H](C)C(=O)NCC(F)(F)F)n3)c2c1` [Compound 204], the Ki is less than 500 nM at JAK3 and 500 to 5000 nM at ROCK I (AA 6-553).

In the case of `C=C(C)COc1cnc2[nH]cc(-c3cccc(N4C[C@@H](C)N(C(C)=O)[C@@H](C)C4)n3)c2c1` [Compound 207], the Ki on JAK3 was less than 500 nM; at ROCK I (AA 6-553) it was 500 to 5000 nM.

For the compound `FC(F)(F)c1cc(NCc2ccccc2)cc(-c2c[nH]c3ncc(Cl)cc23)c1` [Compound 187], the figures for the Ki on JAK3 and at JAK2 were less than 500 nM and 500 to 5000 nM, respectively.

`CC(=O)N1[C@H](C)CN(c2cccc(-c3c[nH]c4ncc(C(=O)N5CCCCCC5)cc34)n2)C[C@@H]1C` [Compound 55]: the Ki on JAK3 and on JAK2 was 500 to 5000 nM each time.

As to `CC(=O)N1[C@H](C)CN(c2cccc(-c3c[nH]c4ncc(OCCCN5CCOCC5)cc34)n2)C[C@@H]1C` [Compound 208], the Ki was less than 500 nM at JAK3 and 500 to 5000 nM on ROCK I (AA 6-553).

Take `Cc1cccc(-c2c[nH]c3ncc(Cl)cc23)c1` [Compound 185]: the values for the Ki at JAK3 and at JAK2 were less than 500 nM and 500 to 5000 nM, respectively.
